The CheMixHub ionic liquid set

Test: xn = mol fraction of the nth substance listed
Details: 100 kPa

CCCCCCCCCCCCCCCC[N+](C)(C)C.[Br-] + NCC(=O)NCC(=O)O + O
Details | electrical conductivity [S/m]
293.15 K, x1 = 3.61e-06, x2 = 0.0001802 | 0.0032
293.15 K, x1 = 5.41e-06, x2 = 0.0001802 | 0.0042
293.15 K, x1 = 7.22e-06, x2 = 0.0001802 | 0.0053
293.15 K, x1 = 9.02e-06, x2 = 0.0001802 | 0.006
293.15 K, x1 = 3.428e-05, x2 = 0.0001802 | 0.0097
293.15 K, x1 = 3.608e-05, x2 = 0.0001802 | 0.0099
298.15 K, x1 = 1.8e-06, x2 = 9.009e-05 | 0.0016
298.15 K, x1 = 3.61e-06, x2 = 9.009e-05 | 0.0027
298.15 K, x1 = 5.41e-06, x2 = 9.009e-05 | 0.0037
298.15 K, x1 = 5.41e-06, x2 = 0.0001802 | 0.0044
298.15 K, x1 = 7.21e-06, x2 = 9.009e-05 | 0.0048
298.15 K, x1 = 7.22e-06, x2 = 0.0001802 | 0.0054
298.15 K, x1 = 9.02e-06, x2 = 0.0001802 | 0.0062
298.15 K, x1 = 1.082e-05, x2 = 9.009e-05 | 0.0065
298.15 K, x1 = 1.082e-05, x2 = 0.0001802 | 0.0072
298.15 K, x1 = 1.262e-05, x2 = 1.802e-05 | 0.0046
298.15 K, x1 = 2.885e-05, x2 = 9.009e-05 | 0.0094
298.15 K, x1 = 3.067e-05, x2 = 0.0001802 | 0.0098
298.15 K, x1 = 3.245e-05, x2 = 9.009e-05 | 0.0099
303.15 K, x1 = 1.8e-06, x2 = 9.009e-05 | 0.0018
303.15 K, x1 = 3.61e-06, x2 = 9.009e-05 | 0.0029
303.15 K, x1 = 3.61e-06, x2 = 0.0001802 | 0.0036
303.15 K, x1 = 5.41e-06, x2 = 0.0001802 | 0.0046
303.15 K, x1 = 7.21e-06, x2 = 9.009e-05 | 0.005
303.15 K, x1 = 7.22e-06, x2 = 0.0001802 | 0.0055
303.15 K, x1 = 9.02e-06, x2 = 9.009e-05 | 0.006
303.15 K, x1 = 9.02e-06, x2 = 0.0001802 | 0.0064
303.15 K, x1 = 1.081e-05, x2 = 1.802e-05 | 0.0044
303.15 K, x1 = 1.082e-05, x2 = 9.009e-05 | 0.007
303.15 K, x1 = 1.082e-05, x2 = 0.0001802 | 0.0073
303.15 K, x1 = 1.262e-05, x2 = 1.802e-05 | 0.0051
303.15 K, x1 = 1.262e-05, x2 = 9.009e-05 | 0.0078
303.15 K, x1 = 1.263e-05, x2 = 0.0001802 | 0.0081
303.15 K, x1 = 1.622e-05, x2 = 1.802e-05 | 0.0061
303.15 K, x1 = 1.623e-05, x2 = 9.009e-05 | 0.0089
303.15 K, x1 = 1.624e-05, x2 = 0.0001802 | 0.009
303.15 K, x1 = 1.802e-05, x2 = 1.802e-05 | 0.0065
303.15 K, x1 = 1.803e-05, x2 = 9.009e-05 | 0.0092
303.15 K, x1 = 1.804e-05, x2 = 0.0001802 | 0.0098
303.15 K, x1 = 1.982e-05, x2 = 1.802e-05 | 0.007
303.15 K, x1 = 1.983e-05, x2 = 9.009e-05 | 0.0094
303.15 K, x1 = 1.984e-05, x2 = 0.0001802 | 0.0099
303.15 K, x1 = 2.164e-05, x2 = 9.009e-05 | 0.0095
303.15 K, x1 = 2.344e-05, x2 = 9.009e-05 | 0.0097
303.15 K, x1 = 2.524e-05, x2 = 9.009e-05 | 0.0099
303.15 K, x1 = 2.703e-05, x2 = 1.802e-05 | 0.0079
303.15 K, x1 = 2.883e-05, x2 = 1.802e-05 | 0.0081
303.15 K, x1 = 3.064e-05, x2 = 1.802e-05 | 0.0082
303.15 K, x1 = 3.244e-05, x2 = 1.802e-05 | 0.0084
303.15 K, x1 = 3.424e-05, x2 = 1.802e-05 | 0.0084
303.15 K, x1 = 3.604e-05, x2 = 1.802e-05 | 0.0086
308.15 K, x1 = 1.8e-06, x2 = 9.009e-05 | 0.0018
308.15 K, x1 = 1.8e-06, x2 = 0.0001802 | 0.003
308.15 K, x1 = 3.61e-06, x2 = 9.009e-05 | 0.003
308.15 K, x1 = 3.61e-06, x2 = 0.0001802 | 0.0039
308.15 K, x1 = 5.41e-06, x2 = 9.009e-05 | 0.0042
308.15 K, x1 = 5.41e-06, x2 = 0.0001802 | 0.0049
308.15 K, x1 = 7.21e-06, x2 = 9.009e-05 | 0.0052
308.15 K, x1 = 7.22e-06, x2 = 0.0001802 | 0.0057
308.15 K, x1 = 9.02e-06, x2 = 0.0001802 | 0.0066
308.15 K, x1 = 1.081e-05, x2 = 1.802e-05 | 0.0047
308.15 K, x1 = 1.262e-05, x2 = 1.802e-05 | 0.0055
308.15 K, x1 = 1.262e-05, x2 = 9.009e-05 | 0.0081
308.15 K, x1 = 1.442e-05, x2 = 1.802e-05 | 0.006
308.15 K, x1 = 1.622e-05, x2 = 1.802e-05 | 0.0063
308.15 K, x1 = 1.624e-05, x2 = 0.0001802 | 0.0099
308.15 K, x1 = 1.802e-05, x2 = 1.802e-05 | 0.0068
308.15 K, x1 = 1.803e-05, x2 = 9.009e-05 | 0.01
308.15 K, x1 = 2.163e-05, x2 = 1.802e-05 | 0.0076
308.15 K, x1 = 2.343e-05, x2 = 1.802e-05 | 0.0077
308.15 K, x1 = 2.523e-05, x2 = 1.802e-05 | 0.008
308.15 K, x1 = 2.703e-05, x2 = 1.802e-05 | 0.0082
308.15 K, x1 = 2.883e-05, x2 = 1.802e-05 | 0.0084
308.15 K, x1 = 3.064e-05, x2 = 1.802e-05 | 0.0084
308.15 K, x1 = 3.244e-05, x2 = 1.802e-05 | 0.0086
308.15 K, x1 = 3.424e-05, x2 = 1.802e-05 | 0.0087
308.15 K, x1 = 3.604e-05, x2 = 1.802e-05 | 0.009
313.15 K, x1 = 1.8e-06, x2 = 9.009e-05 | 0.0019
313.15 K, x1 = 1.8e-06, x2 = 0.0001802 | 0.0031
313.15 K, x1 = 3.61e-06, x2 = 9.009e-05 | 0.0033
313.15 K, x1 = 3.61e-06, x2 = 0.0001802 | 0.004
313.15 K, x1 = 5.41e-06, x2 = 9.009e-05 | 0.0045
313.15 K, x1 = 5.41e-06, x2 = 0.0001802 | 0.005
313.15 K, x1 = 7.21e-06, x2 = 1.802e-05 | 0.0039
313.15 K, x1 = 7.21e-06, x2 = 9.009e-05 | 0.0055
313.15 K, x1 = 7.22e-06, x2 = 0.0001802 | 0.0059
313.15 K, x1 = 9.02e-06, x2 = 9.009e-05 | 0.0064
313.15 K, x1 = 9.02e-06, x2 = 0.0001802 | 0.0067
313.15 K, x1 = 1.082e-05, x2 = 9.009e-05 | 0.0075
313.15 K, x1 = 1.082e-05, x2 = 0.0001802 | 0.0078
313.15 K, x1 = 1.262e-05, x2 = 1.802e-05 | 0.006
313.15 K, x1 = 1.262e-05, x2 = 9.009e-05 | 0.0084
313.15 K, x1 = 1.263e-05, x2 = 0.0001802 | 0.0085
313.15 K, x1 = 1.442e-05, x2 = 1.802e-05 | 0.0065
313.15 K, x1 = 1.442e-05, x2 = 9.009e-05 | 0.0091
313.15 K, x1 = 1.443e-05, x2 = 0.0001802 | 0.0094
313.15 K, x1 = 1.622e-05, x2 = 1.802e-05 | 0.0069
313.15 K, x1 = 1.802e-05, x2 = 1.802e-05 | 0.0075
313.15 K, x1 = 1.982e-05, x2 = 1.802e-05 | 0.0078
313.15 K, x1 = 2.163e-05, x2 = 1.802e-05 | 0.0081
313.15 K, x1 = 2.343e-05, x2 = 1.802e-05 | 0.0082
313.15 K, x1 = 2.523e-05, x2 = 1.802e-05 | 0.0084
313.15 K, x1 = 2.703e-05, x2 = 1.802e-05 | 0.0086
313.15 K, x1 = 2.883e-05, x2 = 1.802e-05 | 0.0089
313.15 K, x1 = 3.064e-05, x2 = 1.802e-05 | 0.009
313.15 K, x1 = 3.244e-05, x2 = 1.802e-05 | 0.0093
313.15 K, x1 = 3.424e-05, x2 = 1.802e-05 | 0.0095
313.15 K, x1 = 3.604e-05, x2 = 1.802e-05 | 0.0097
